{"source": "patent US20220119460A1", "about": "“Means and Methods to Overrule Glucose-Mediated Repression of Respiration in Yeast” (priority 2019, published 2022)", "key": {"[1]": {"test_system": "S. cerevisiae strain AN63", "test": "Growth rate in stable sugar conditions (5% galactose) with antimycin A", "format": "cell-based", "details": "41 respiratory deletion mutants, compared with slowest growing mutants without the compound (FIG. 2D)", "method": "(§1) All population growth measurements were performed using Bioscreen C machines (Growth Curves USA). For the gradual shift experiments, cells were inoculated in a 96-well plate containing YP plus 5% glucose (high-glucose [HG]) medium and serially diluted for growth overnight at 30° C. shaking at 900 rpm. Cultures at an OD600 of 0.1 were transferred to a new plate and serially diluted in fresh HG medium for growth overnight. The next day, cultures at an OD600 of 0.1 were washed three times into YP plus 0.5% glucose (low glucose [LG]) plus the appropriate carbohydrate source, with or without 3 μg/ml of antimycin A, and diluted so that the initial cell concentration for the Bioscreen C measurements was 10^5 cells/ml. OD600 measurements were taken every 15 min for 7 days or until the cultures reached stationary phase.\nThe same procedure was followed for the stationary growth experiments, replacing the HG medium from pregrowth and the final growth medium with 5% galactose. […]\n(§2) The growth rate was then obtained by calculating the discrete derivative of In(OD600,me) versus time. […] In the case of two exponential phases in the growth curve (i.e., conditions with a mix of carbon sources in the medium), the maximum growth rate for each phase (maxR1, maxR2) was detected. Once these parameters were determined, the lag time was calculated by the time difference between two time points: the start and the end. […]"}, "[2]": {"test_system": "S. cerevisiae strain AN63", "test": "Population growth lag time measurement, gradual glucose-to-galactose shift with antimycin A", "format": "cell-based", "details": "3 μg/ml antimycin A in medium; 0.5% glucose plus 5% galactose; wild type and 41 respiratory deletion mutants (FIG. 2B)", "method": "Population Growth Lag Time Measurements (Antimycin a Treatment and Glucose-to-Galactose Shift).\nas §1, with “OD600 measurements were taken every 15 min for 7 days or until the cultures reached stationary phase.” left out\nwhere the cx subscript stands for corrected and the me subscript stands for measured.\nas §2"}}, "data": [{"substance": "antimycin A", "values": [{"measurement": "growth rate in the presence of antimycin A", "setting": "[1]", "result": "equally low growth rates"}, {"measurement": "prolongation of the lag times", "setting": "[2]", "result": "up to 2.2 fold"}]}]}
